The record followed here is patent US11498923B2 (Merck Sharp & Dohme Corp., priority 2017, dated 2022).

T1 sequence (P29274 whole entry): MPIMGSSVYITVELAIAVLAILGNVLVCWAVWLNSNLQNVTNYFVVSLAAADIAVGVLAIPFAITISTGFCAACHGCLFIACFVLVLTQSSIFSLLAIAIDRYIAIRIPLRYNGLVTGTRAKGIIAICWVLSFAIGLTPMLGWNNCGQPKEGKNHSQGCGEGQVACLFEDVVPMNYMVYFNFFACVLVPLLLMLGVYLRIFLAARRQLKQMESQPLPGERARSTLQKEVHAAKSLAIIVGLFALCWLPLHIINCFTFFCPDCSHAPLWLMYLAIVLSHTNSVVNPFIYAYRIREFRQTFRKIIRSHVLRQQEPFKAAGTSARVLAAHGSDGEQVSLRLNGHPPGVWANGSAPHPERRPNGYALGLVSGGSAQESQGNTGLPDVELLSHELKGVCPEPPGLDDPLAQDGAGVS

The experiment concerns the target T1, human A2a receptor (Homo sapiens, UniProt P29274).
T1 construct: purchased Perkin-Elmer RBHA2AM400UA; host or cells: HEK293 cells, used as a membrane preparation
Briefly: A2a receptor competition binding assay (Scintillation Proximity). As to conditions: membranes from HEK293 cells expressing human A2a receptor; 0.5 nM tritiated ligand; Cheng-Prusoff; read-out: A2a Ki. The gist of the method:
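HEK293 membranes bearing the human receptor, pretreated with adenosine deaminase, competed against 0.5 nM tritiated pyrazolotriazolopyrimidine antagonist with compound at 3000–0.15 nM final in DPBS plus 10 mM MgCl2. SPA bead readout after 1 h at room temperature; Ki from EC50 via Cheng-Prusoff.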
On the technique in general: Scintillation proximity formats need no separation of bound from free tracer.
One may read the Ki as a measure of affinity in units of concentration, obtained from inhibition or displacement. As for `COc1cccc2c1nc(N)n1cc(Cc3cccc4c3CCN(C(=O)Cc3ccc(F)c(F)c3)C4)nc21` [Ex-59, 1-(5-((5-amino-7-methoxyimidazo[1,2-c]quinazolin-2-yl)methyl)-3,4-dihydroisoquinolin-2(1H)-yl)-2-(3,4-difluorophenyl)ethan-1-one], the Ki was 2.9 nM.
The figure for `COc1cccc2c1nc(N)n1cc(Cc3ccc(F)cc3)nc21` [Ex-21, 2-(4-fluorobenzyl)-7-methoxyimidazo[1,2-c]quinazolin-5-amine] is 0.8 nM; for `Nc1nc2c(F)cccc2c2nc(Cc3ccc(C(=O)NC4(c5ccccc5)CC4)cc3)cn12` [Ex-87, 4-((5-amino-7-fluoroimidazo[1,2-c]quinazolin-2-yl)methyl)-N-(1-phenylcyclopropyl)benzamide] it is 40 nM; for `CC(=O)N1CCc2c(Cc3cn4c(N)nc5c(F)cccc5c4n3)cccc2C1` [Ex-53, 1-(5-((5-amino-7-fluoroimidazo[1,2-c]quinazolin-2-yl)methyl)-3,4-dihydroisoquinolin-2(1H)-yl)ethan-1-one] it is 3.7 nM.
The figure for `Nc1nc2c(F)cccc2c2nc(Cc3ccc4c(c3)CN(Cc3ccccc3)C4)cn12` [Ex-65, 2-((2-benzylisoindolin-5-yl)methyl)-7-fluoroimidazo[1,2-c]quinazolin-5-amine] is 5.1 nM; for `CC(C)(C)OC(=O)N1CCCC2(CCN(C(=O)c3cn4c(N)nc5c(F)cccc5c4n3)CC2)C1` [Ex-265, tert-butyl 9-(5-amino-7-fluoroimidazo[1,2-c]quinazoline-2-carbonyl)-2,9-diazaspiro[5.5]undecane-2-carboxylate] it is 86 nM.
The figure for `COc1cccc2c1nc(N)n1cc(CN3CCc4ccc(-c5ccc(F)c(F)c5)cc4C3)nc21` [Ex-135, 2-((7-(3,4-difluorophenyl)-3,4-dihydroisoquinolin-2(1H)-yl)methyl)-7-methoxyimidazo[1,2-c]quinazolin-5-amine] is 10.4 nM.
On to `CC(=O)N1CCc2cc(Cc3cn4c(N)nc5c(F)cccc5c4n3)ccc2C1` [Ex-47, 1-(6-((5-amino-7-fluoroimidazo[1,2-c]quinazolin-2-yl)methyl)-3,4-dihydroisoquinolin-2(1H)-yl)ethan-1-one], for which the Ki came to 5.9 nM.
